Reference: patent US10874643B2 (priority 2015, dated 2020)
Counter-ions that a name gives are not always drawn.

What follows are compounds tested on scn1Lab mutants (assay: not given). Conditions: 1 mM bath applied; agar-embedded mutants 5-6 dpf; seven fish per drug; vs baseline.
Assay type: in vivo, zebrafish
For `NC(=O)N1c2ccccc2C=Cc2ccccc21` [carbamazepine], the “Epileptiform event frequency (burst frequency; interictal- and ictal-like discharges)” value was “increased burst frequency”. `C=CC(N)CCC(=O)O` (stereo not drawn) [vigabatrin] was tested, and the “Epileptiform event frequency (burst frequency; interictal- and ictal-like discharges)” value was “increased burst frequency”.

Same assay, conditions: 1 mM; seven fish per drug
`NC(=O)N1c2ccccc2C=Cc2ccccc21` [carbamazepine] was tested, and the “fish in which epileptiform activity became more frequent following exposure” value was 2 of 7. With `C=CC(N)CCC(=O)O` (stereo not drawn) [vigabatrin] the “fish in which epileptiform activity became more frequent following exposure” value was 6 of 7.

Same assay, conditions: zebrafish, in vivo
With `C[C@]12N[C@H](Cc3ccccc31)c1ccccc12` [MK-801] the “epileptic seizure events in sample EEG traces” value was “no suppression of epileptic events”.

What follows are compounds tested on scn1Lab mutants (assay: Locomotion tracking assay of seizure behavior (96-well format)). Conditions: 250 μM; 6 fish per drug; positive hit = reduction in mean swim velocity ≥38%.
In the case of `COc1ccccc1N1CCN(CCN2C(=O)CC3(CCCC3)CC2=O)CC1` [BMY 7378, 8-(2-[4-(2-methoxyphenyl)-1-piperazinyl]ethyl)-8-azaspiro[4.5]decane-7,9-dione], the “5HT library first-pass locomotion screen” value is reported as “positive hits”. With `CN1CCC(c2c[nH]c3ccc(O)cc23)CC1` [BRL-54443, 3-(1-methylpiperidin-4-yl)-1H-indol-5-ol] the “5HT library first-pass locomotion screen” value was “positive hits”. `CNCC[C@@H](Oc1ccccc1C)c1ccccc1` [atomoxetine] was tested, and the “5HT library first-pass locomotion screen” value was “positive hits”. With `O=C1CC2(CCCC2)CC(=O)N1CCCCN1CCN(c2ncccn2)CC1` [buspirone] the “5HT library first-pass locomotion screen” value was “positive hits”. For `C[C@H]1CNCCc2ccc(Cl)cc21` [lorcaserin], the “5HT library first-pass locomotion screen” value was “positive hits”. With `CNS(=O)(=O)CCc1ccc2[nH]cc(C3CCN(C)CC3)c2c1` [naratriptap] the “5HT library first-pass locomotion screen” value was “positive hits”. In the case of `CN(C)CCc1c[nH]c2ccc(Cn3cncn3)cc12` [rizatriptan], the “5HT library first-pass locomotion screen” value is reported as “positive hits”. For `CNS(=O)(=O)Cc1ccc2[nH]cc(CCN(C)C)c2c1` [sumatriptan], the “5HT library first-pass locomotion screen” value was “positive hits”. `COc1ccccc1N1CCN(CCCNc2cc(=O)n(C)c(=O)n2C)CC1` [urapidil] was tested, and the “5HT library first-pass locomotion screen” value was “positive hits”. With `COc1ccc(C(CN(C)C)C2(O)CCCCC2)cc1` (stereo not drawn) [venlafaxine] the “5HT library first-pass locomotion screen” value was “positive hits”. In the case of `O=C1Cc2cc(CCN3CCN(c4nsc5ccccc45)CC3)c(Cl)cc2N1` [ziprasidone], the “5HT library first-pass locomotion screen” value is reported as “positive hits”. `CN(C)CCc1c[nH]c2ccc(C[C@H]3COC(=O)N3)cc12` [zolmitriptan] was tested, and the “5HT library first-pass locomotion screen” value was “positive hits”.

Same assay, conditions: 667 μM; 5 dpf; 6-12 fish
`NCC(O)CC(=O)O` (stereo not drawn) [aminohydroxybutyric acid] was tested, and the “inhibition of spontaneous seizure behavior, initial library screen” value (“inhibition” below) was “ineffective”. With `O=C(CCCl)NCc1ccccc1` [beclamide] the “inhibition” value was “ineffective”. In the case of `CCNC1(c2cccs2)CCCCC1=O` (stereo not drawn) [tiletamine], the “inhibition” value is reported as “ineffective”.

Same assay, conditions: 1 mM; 5 dpf; 6-12 fish
With `CC(=O)Nc1nnc(S(N)(=O)=O)s1` [Acetazolamide] the “effect on locomotor seizure behavior” value was “increased seizure behavior”. For `CC(=O)[C@H]1CC[C@H]2[C@@H]3CC[C@H]4C[C@](C)(O)CC[C@]4(C)[C@H]3CC[C@]12C` [ganaxolone], the “effect on locomotor seizure behavior” value was “effective”. In the case of `Nc1nnc(-c2cccc(Cl)c2Cl)c(N)n1` [lamotrigine], the “effect on locomotor seizure behavior” value is reported as “had no effect”. With `CC[C@@H](C(N)=O)N1CCCC1=O` [levetiracetam] the “effect on locomotor seizure behavior” value was “had no effect”.

Same assay, conditions: 5 dpf; shelf screen at 0.1-1 mM
In the case of `CC(C)CCCC(C)NC(C)C` (stereo not drawn) [iproheptine], the “convulsive/seizure behavior with antihistamines” value (from here on “convulsive/seizure behavior”) is reported as “failed to suppress convulsive behavior”. For `CN1CCc2c(c3ccccc3n2Cc2ccccc2)C1.CN1CCc2c(c3ccccc3n2Cc2ccccc2)C1.O=S(=O)(O)c1cccc2c(S(=O)(=O)O)cccc12` [mebhydrolin napthalenesulfonate], the “convulsive/seizure behavior” value was “failed to suppress convulsive behavior”. In the case of `CN1CCC(=C2c3ccccc3Sc3ccccc32)CC1` [pimethixene maleate], the “convulsive/seizure behavior” value is reported as “failed to suppress convulsive behavior”.
